How the values were obtained:
TxA2 Synthase [1] = target: T1, TxA2 Synthase (Rattus norvegicus, UniProt P49430); experiment: Inhibition of TxA2 synthase activity: TxB2 production in rat whole blood during clotting (serum, RIA), in vitro; type: cell-based; details: for inhibitory activity on TxA2 synthesis (in words): rat
T1 construct: TxB2 generated in whole blood during clotting; endogenous in cells; host or cells: rat whole blood (blood cells, mainly platelets), clotted 1 h at 37 °C
T1 sequence (P49430 1-533): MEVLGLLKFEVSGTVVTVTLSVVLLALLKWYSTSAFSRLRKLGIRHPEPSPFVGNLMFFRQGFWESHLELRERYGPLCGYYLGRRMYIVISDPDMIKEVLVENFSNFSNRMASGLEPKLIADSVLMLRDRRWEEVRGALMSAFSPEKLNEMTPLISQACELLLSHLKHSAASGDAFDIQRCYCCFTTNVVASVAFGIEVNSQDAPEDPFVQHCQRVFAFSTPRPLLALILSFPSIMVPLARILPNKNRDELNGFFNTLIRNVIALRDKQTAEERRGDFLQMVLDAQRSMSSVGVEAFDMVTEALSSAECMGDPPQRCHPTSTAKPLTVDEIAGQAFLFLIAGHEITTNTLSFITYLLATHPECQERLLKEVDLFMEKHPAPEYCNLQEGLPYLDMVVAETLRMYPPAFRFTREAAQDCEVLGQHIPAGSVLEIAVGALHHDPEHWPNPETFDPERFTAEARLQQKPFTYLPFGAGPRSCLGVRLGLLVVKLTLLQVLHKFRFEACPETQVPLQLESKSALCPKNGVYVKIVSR
Procedure: The compounds of formula (I) were for example tested for their ability to inhibit TxA2 Synthase activity (as reflected by TxB2 generated in whole blood during clotting or in isolated glomeruli) in vitro in the rat.
The in vitro experiments were carried out as follows:
The effect of the compounds on TxA2 synthesis was evaluated in serum.
Blood was withdrawn from the abdominal aorta of the animals under light ether anesthesia.
Samples were then allowed to clot for 1 h at 37° C., centrifuged at 3000 rpm for 10 min, serum collected and stored at -20° C. until assayed. TxB2 levels were determined by RIA according to previously described procedures [Patrono et al.--Thromb. Res. 17, 3/4, 317, 1980] using highly specific antibody.

TxA2 receptor = target: T2, TxA2 receptor (Homo sapiens, UniProt P21731); experiment: [3H]-SQ 29,548 binding displacement in washed human platelets (TxA2 antagonism)
T2 construct: endogenous in cells; host or cells: washed human platelets from healthy volunteers
T2 sequence (P21731 1-343): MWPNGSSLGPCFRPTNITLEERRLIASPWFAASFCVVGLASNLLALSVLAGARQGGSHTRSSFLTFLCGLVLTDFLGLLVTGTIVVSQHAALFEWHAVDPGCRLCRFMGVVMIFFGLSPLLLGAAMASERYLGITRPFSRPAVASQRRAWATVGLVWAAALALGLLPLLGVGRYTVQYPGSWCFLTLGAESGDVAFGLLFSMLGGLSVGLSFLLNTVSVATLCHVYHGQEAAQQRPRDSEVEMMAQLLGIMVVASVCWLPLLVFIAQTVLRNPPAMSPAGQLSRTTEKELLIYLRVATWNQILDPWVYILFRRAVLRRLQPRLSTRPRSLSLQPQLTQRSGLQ
Procedure: Platelet rich plasma (PRP), obtained by centrifugation of the blood at 200×g for 20 min, is washed twice (1000×g for 10 min). […] For displacement experiments various concentrations (10^-9 -10^-4 M) of competing ligands were added and incubated for 30 min at 25° C.
The binding data were analysed by computerized non-linear curve fitting using the Ligand program and expressed as IC50.

TxA2 synthase [2] = details: known compound; cited from earlier work

| SMILES | inhibitory activity on TxA2 synthesis (in words) (TxA2 Synthase [1]) | IC50 (TxA2 Synthase [1]; rat whole blood, n = 8 replicates, limits for p = 0.95 printed on following line, clotting 1 h at 37° C.) | inhibitory activity on TxA2 synthesis (in words) (TxA2 Synthase [1]; listed as FCE 27109) | affinity for the receptor / TxA2 antagonism (in words) (TxA2 receptor) | IC50 (TxA2 receptor; 5 nM [3H]-SQ 29,548, 30 min at 25° C., pH 7.4) | TxA2 synthase inhibitory activity (in words) (TxA2 synthase [2]) |
| --- | --- | --- | --- | --- | --- | --- |
| O=C(O)CCCCO/N=C(\c1ccccc1)C(Cc1ccc(F)cc1)n1ccnc1 (racemic) [FCE 27317, (±)-(E)-5-[1-phenyl-2-(imidazol-1-yl)-2-(4-fluorobenzyl)ethylidene]aminoxypentanoic acid] | marked inhibitory activity on TxA2 synthesis significantly more potent than that of reference compounds Dazoxiben and ASA | 390 nM | active as TxA2 synthase inhibitor | good affinity for the receptor better than that showed by the known compound Sulotroban (BM 13177) | 38.7 nM | – |
| O=C(O)COc1ccc(CCNS(=O)(=O)c2ccccc2)cc1 [BM 13177] | – | – | – | – | – | devoid of TxA2 synthase inhibitory activity |

Reference: patent US5283254A, “2-(imidazol-1-yl)-2-benzylethyldiene-aminoxyalkanoic acid derivatives” (Farmitalia Carlo Erba S.r.l., priority 1991, dated 1994)
